Data: patent publication US10806702B2, “Bis-polymer lipid-peptide conjugates and nanoparticles thereof” (THE REGENTS OF THE UNIVERSITY OF CALIFORNIA, priority 2012, dated 2020)

How the values were obtained:
[1] = Drug loading of micelles (thin film hydration, HPLC); type: physicochemical; details: drug encapsulated in dC18-1coi(P2K)-P750 micelles
Protocol: DOX, paclitaxel and rapamycin loaded micelles were prepared using identical procedures by thin film hydration method. dC18-1coi(P2K)-P750 and the different drugs were dissolved in methanol in a glass vial and the solvent was evaporated in vacuum oven for 3 hours. The dried film containing the conjugate and drug was rehydrated with 25 mM phosphate buffer, pH 7.4, and the solution was stirred for 16 hours to allow the assembly into drug loaded 3-helix micelles. Free drug was removed by centrifugation followed by spin ultrafiltration (Amicon centrifugal filter units, MW cutoff: 3000 Da). The concentrate obtained was washed with water and lyophilized to obtain drug loaded micelles. The drug loaded micelles were dissolved in methanol and loading was determined by reverse phase HPLC monitoring the absorbance of drugs at 280 nm. For all characterization experiments of drug loaded micelles, lyophilized powder of micellar-drugs was dissolved in 25 mM phosphate buffer, pH 7.4, and the solution was heated in water bath at 60° C. for an hour to break potential aggregates to obtain a clear solution.
The solvent was evaporated in vacuum oven for 3 hours. […] The salts and free drug were removed by centrifugation followed by spin ultrafiltration (Amicon centrifugal filter units, MW cutoff: 3000 Da). […]
Drug loading content was determined by HPLC. […]

[2] = system: NDL tumors; experiment: Intravenous DOX-loaded micelles: organ fluorescence in NDL tumor mice; type: in vivo, FVB mice; details: 24 and 72 h
[3] = CED, 20 μl, DOX 0.2 mg/ml, a week after infusion
[4] = system: NDL tumors; details: stated as known; cited from earlier work

SMILES | Loading (wt %) [1] | fluorescence in different organs after free DOX injections [2] | brain tissue toxicity (H&E staining) [3] | clearance time from blood circulation [4]
COc1cccc2c1C(=O)c1c(O)c3c(c(O)c1C2=O)C[C@@](O)(C(=O)CO)C[C@@H]3O[C@H]1C[C@H](N)[C@H](O)[C@H](C)O1 [Doxorubicin, doxorubicin] | 7.6 ± 0.4 wt % | cannot be detected | significant tissue damage | tens of minutes
CC(=O)O[C@H]1C(=O)[C@@]2(C)[C@H]([C@H](OC(=O)c3ccccc3)[C@]3(O)C[C@H](OC(=O)[C@H](O)[C@@H](NC(=O)c4ccccc4)c4ccccc4)C(C)=C1C3(C)C)[C@]1(OC(C)=O)CO[C@@H]1C[C@@H]2O [Paclitaxel, paclitaxel] | 1.9 ± 0.4 wt % |  |  | 
